Experimental data reported in publication PMC5218480 (PLoS ONE, 2017).

Tested on: MV-4-11 cells
Assay: Gene expression microarray analysis (Affymetrix PrimeView) and GSEA
Assay type: cell-based, human
Design: RFU PODN (11730768_x_at) / Fold change /veh PODN (11730768_x_at) / RFU LINC00158 (11744669_a_at) / Fold change /veh LINC00158 (11744669_a_at) / RFU DUSP10 (11751237_a_at) / Fold change /veh DUSP10 (11751237_a_at) / RFU ID3 (11757404_x_at) / Fold change /veh ID3 (11757404_x_at) / RFU PLEKHG5 (11737974_s_at) / Fold change /veh PLEKHG5 (11737974_s_at) / RFU LRRC4B (11730491_at) / Fold change /veh LRRC4B (11730491_at) / RFU GIMAP4 (11747438_a_at) / Fold change /veh GIMAP4 (11747438_a_at) / RFU KRT8 (11758183_x_at) / Fold change /veh KRT8 (11758183_x_at) / RFU CNN1 (11734310_a_at) / Fold change /veh CNN1 (11734310_a_at) / RFU VPS37D (11726825_at) / Fold change /veh VPS37D (11726825_at) / RFU C10orf10 (11716522_x_at) / Fold change /veh C10orf10 (11716522_x_at) / RFU KIR2DL2 /// KIR2DL4 /// KIR2DL5A /// KIR2DL5B /// KIR2DS1 /// KIR2DS2 /// KIR2DS3 /// KIR2DS4 /// KIR3DL3 /// KIR3DL3 /// KIR3DS1 (11738374_at) / Fold change /veh KIR2DL2 /// KIR2DL4 /// KIR2DL5A /// KIR2DL5B /// KIR2DS1 /// KIR2DS2 /// KIR2DS3 /// KIR2DS4 /// KIR3DL3 /// KIR3DL3 /// KIR3DS1 (11738374_at) / RFU C1QL1 (11718748_at) / Fold change /veh C1QL1 (11718748_at) / RFU TMPRSS4 (11747572_a_at) / Fold change /veh TMPRSS4 (11747572_a_at) / RFU HAMP (11756126_x_at) / Fold change /veh HAMP (11756126_x_at) / RFU RNFT2 (11725882_a_at) / Fold change /veh RNFT2 (11725882_a_at) / RFU NR4A2 (11747474_a_at) / Fold change /veh NR4A2 (11747474_a_at) / RFU ABCC12 (11746883_a_at) / Fold change /veh ABCC12 (11746883_a_at) / RFU TMEM136 (11760407_x_at) / Fold change /veh TMEM136 (11760407_x_at) / RFU CLDN22 /// WWC2 (11732394_at) / Fold change /veh CLDN22 /// WWC2 (11732394_at) / RFU HLA-DPB1 (11760878_x_at) / Fold change /veh HLA-DPB1 (11760878_x_at) / RFU SPINT1 (11716480_a_at) / Fold change /veh SPINT1 (11716480_a_at) / RFU GAP43 (11754022_s_at) / Fold change /veh GAP43 (11754022_s_at) / RFU A4GNT (11735810_at) / Fold change /veh A4GNT (11735810_at) / RFU PRB3 (11715151_x_at) / Fold change /veh PRB3 (11715151_x_at) / RFU TUBB4B (11761932_at) / Fold change /veh TUBB4B (11761932_at) / RFU CAPN14 (11732068_a_at) / Fold change /veh CAPN14 (11732068_a_at) / RFU TMCC2 (11721928_a_at) / Fold change /veh TMCC2 (11721928_a_at) / RFU IRGQ (11745062_a_at) / Fold change /veh IRGQ (11745062_a_at) / RFU FAM174B (11720279_a_at) / Fold change /veh FAM174B (11720279_a_at) / RFU TMPRSS4 (11748680_a_at) / Fold change /veh TMPRSS4 (11748680_a_at) / RFU FAM212B (11763350_a_at) / Fold change /veh FAM212B (11763350_a_at) / RFU PLEKHG5 (11743358_a_at) / Fold change /veh PLEKHG5 (11743358_a_at) / RFU ZSCAN30 (11745921_a_at) / Fold change /veh ZSCAN30 (11745921_a_at) / RFU CMKLR1 (11741424_a_at) / Fold change /veh CMKLR1 (11741424_a_at) / RFU LOC101060620 /// MAPK8IP1 (11723275_at) / Fold change /veh LOC101060620 /// MAPK8IP1 (11723275_at) / RFU SPTSSB (11747773_x_at) / Fold change /veh SPTSSB (11747773_x_at) / RFU PRSS12 (11739890_at) / Fold change /veh PRSS12 (11739890_at) / RFU BIN1 (11741810_x_at) / Fold change /veh BIN1 (11741810_x_at) / RFU WNT11 (11732464_a_at) / Fold change /veh WNT11 (11732464_a_at) / RFU C10orf10 (11716521_a_at) / Fold change /veh C10orf10 (11716521_a_at) / RFU C5orf56 (11738089_at) / Fold change /veh C5orf56 (11738089_at) / RFU CYB561 (11721691_x_at) / Fold change /veh CYB561 (11721691_x_at) / RFU ANKRD19P (11752326_a_at) / Fold change /veh ANKRD19P (11752326_a_at) / RFU OR2T12 /// OR2T33 /// OR2T8 (11738714_s_at) / Fold change /veh OR2T12 /// OR2T33 /// OR2T8 (11738714_s_at) / RFU VCAN (11748164_a_at) / Fold change /veh VCAN (11748164_a_at) / RFU JSRP1 (11732532_at) / Fold change /veh JSRP1 (11732532_at) / RFU KRTAP10-11 (11738290_x_at) / Fold change /veh KRTAP10-11 (11738290_x_at) / RFU MYO3A (11730013_a_at) / Fold change /veh MYO3A (11730013_a_at) / RFU EBF3 (11725865_a_at) / Fold change /veh EBF3 (11725865_a_at) / RFU CAMK2N1 (11719241_x_at) / Fold change /veh CAMK2N1 (11719241_x_at) / RFU C5orf56 (11738088_a_at) / Fold change /veh C5orf56 (11738088_a_at) / RFU OLFML3 (11715873_a_at) / Fold change /veh OLFML3 (11715873_a_at) / RFU LOC100653217 /// NTM (11731650_a_at) / Fold change /veh LOC100653217 /// NTM (11731650_a_at) / RFU MAPK11 (11762145_a_at) / Fold change /veh MAPK11 (11762145_a_at) / RFU FIZ1 (11724087_x_at) / Fold change /veh FIZ1 (11724087_x_at) / RFU OASL (11726364_x_at) / Fold change /veh OASL (11726364_x_at) / RFU SOX15 (11748057_x_at) / Fold change /veh SOX15 (11748057_x_at) / RFU CD79A (11719716_a_at) / Fold change /veh CD79A (11719716_a_at) / RFU HIST1H1D (11736915_at) / Fold change /veh HIST1H1D (11736915_at) / RFU CASKIN2 (11723855_a_at) / Fold change /veh CASKIN2 (11723855_a_at) / RFU LOC730098 (11760151_x_at) / Fold change /veh LOC730098 (11760151_x_at) / RFU OR4N2 (11742367_at) / Fold change /veh OR4N2 (11742367_at) / RFU PRRT2 (11749266_a_at) / Fold change /veh PRRT2 (11749266_a_at) / RFU SNX32 (11753110_a_at) / Fold change /veh SNX32 (11753110_a_at) / RFU CDHR5 (11726645_a_at) / Fold change /veh CDHR5 (11726645_a_at) / RFU RCAN1 (11760418_a_at) / Fold change /veh RCAN1 (11760418_a_at) / RFU FAM167A (11723789_a_at) / Fold change /veh FAM167A (11723789_a_at) / RFU FAM26E (11764081_at) / Fold change /veh FAM26E (11764081_at) / RFU ISYNA1 (11749810_s_at) / Fold change /veh ISYNA1 (11749810_s_at) / RFU ACY1 (11761880_at) / Fold change /veh ACY1 (11761880_at) / RFU 11764098_at / Fold change /veh 11764098_at / RFU SAMD14 (11745864_x_at) / Fold change /veh SAMD14 (11745864_x_at) / RFU NPB (11741838_a_at) / Fold change /veh NPB (11741838_a_at) / RFU TMPRSS6 (11731388_a_at) / Fold change /veh TMPRSS6 (11731388_a_at) / RFU KRTAP10-2 (11738614_at) / Fold change /veh KRTAP10-2 (11738614_at) / RFU ARHGAP8 /// PRR5-ARHGAP8 (11727945_x_at) / Fold change /veh ARHGAP8 /// PRR5-ARHGAP8 (11727945_x_at) / RFU KRTAP5-7 /// NADSYN1 (11734609_at) / Fold change /veh KRTAP5-7 /// NADSYN1 (11734609_at) / RFU RASL12 (11751679_a_at) / Fold change /veh RASL12 (11751679_a_at) / RFU CDKN2B (11736163_a_at) / Fold change /veh CDKN2B (11736163_a_at) / RFU PRF1 (11729649_at) / Fold change /veh PRF1 (11729649_at) / RFU, ZNF638 /// ZNF638-IT1 / Fold change vs veh, ZNF638 /// ZNF638-IT1 / RFU, PANK3 / Fold change vs veh, PANK3 / RFU, SH3YL1 / Fold change vs veh, SH3YL1 / RFU, ZEB2 / Fold change vs veh, ZEB2 / RFU, NRIP1 / Fold change vs veh, NRIP1 / RFU, PTTG1IP / Fold change vs veh, PTTG1IP / RFU, CAPN2 / Fold change vs veh, CAPN2 / RFU, MED14 / Fold change vs veh, MED14 / RFU, SNORA58 / Fold change vs veh, SNORA58 / RFU, C1orf63 / Fold change vs veh, C1orf63 / RFU, LRRFIP1 / Fold change vs veh, LRRFIP1 / RFU, NDUFAF7 / Fold change vs veh, NDUFAF7 / RFU, SLC12A2 / Fold change vs veh, SLC12A2 / RFU, IBTK / Fold change vs veh, IBTK / RFU, ESF1 / Fold change vs veh, ESF1 / Fold change vs veh, TMEM50B / RFU, TAOK1 / Fold change vs veh, TAOK1 / RFU, ACBD3 / Fold change vs veh, ACBD3 / RFU, TMA16 / Fold change vs veh, TMA16 / RFU, RWDD3 / Fold change vs veh, RWDD3 / RFU, BCAT1 / Fold change vs veh, BCAT1 / RFU, EDEM3 / Fold change vs veh, EDEM3 / RFU, TMEM33 / Fold change vs veh, TMEM33 / RFU, WDR75 / Fold change vs veh, WDR75 / RFU, AHCTF1 / Fold change vs veh, AHCTF1 / RFU, TFRC / Fold change vs veh, TFRC / RFU, ZDHHC17 / Fold change vs veh, ZDHHC17 / RFU, NOM1 / Fold change vs veh, NOM1 / RFU, ARL8B / Fold change vs veh, ARL8B / RFU, ZBTB11 / Fold change vs veh, ZBTB11 / RFU, TAMM41 / Fold change vs veh, TAMM41 / RFU, KIAA1704 /// LOC100996395 / Fold change vs veh, KIAA1704 /// LOC100996395 / RFU, ING1 / Fold change vs veh, ING1 / RFU, TRMT61B / Fold change vs veh, TRMT61B / RFU, FUBP3 / Fold change vs veh, FUBP3 / RFU, TP53 / Fold change vs veh, TP53 / RFU, TNKS2 / Fold change vs veh, TNKS2 / RFU, ZFP14 / Fold change vs veh, ZFP14 / RFU, ACTR2 / Fold change vs veh, ACTR2 / RFU, PPP3R1 / Fold change vs veh, PPP3R1 / RFU, PIK3R1 / Fold change vs veh, PIK3R1 / RFU, HNRNPA1 / Fold change vs veh, HNRNPA1 / RFU, RNF170 / Fold change vs veh, RNF170 / RFU, ZNF28 / Fold change vs veh, ZNF28 / RFU, RNGTT / Fold change vs veh, RNGTT / RFU, OGT / Fold change vs veh, OGT / RFU, BRD1 / Fold change vs veh, BRD1 / RFU, MARS / Fold change vs veh, MARS / RFU, ZNF655 / Fold change vs veh, ZNF655 / RFU, FAHD1 / Fold change vs veh, FAHD1 / RFU, BDP1 / Fold change vs veh, BDP1 / RFU, LRRCC1 / Fold change vs veh, LRRCC1 / RFU, ARID1A / Fold change vs veh, ARID1A / RFU, ZNF146 / Fold change vs veh, ZNF146 / RFU, ZNF330 / Fold change vs veh, ZNF330 / RFU, GPN3 / Fold change vs veh, GPN3 / RFU, C9orf123 / Fold change vs veh, C9orf123 / RFU, N4BP2L2 / Fold change vs veh, N4BP2L2 / RFU, ARFIP1 / Fold change vs veh, ARFIP1 / RFU, FAM179B / Fold change vs veh, FAM179B / RFU, BCL10 / Fold change vs veh, BCL10 / RFU, UHRF1BP1L / Fold change vs veh, UHRF1BP1L / RFU, BET1 / Fold change vs veh, BET1 / RFU, CNOT2 / Fold change vs veh, CNOT2 / RFU, ZNF268 / Fold change vs veh, ZNF268 / Fold change vs veh, ZNF507 / RFU, DGCR2 / Fold change vs veh, DGCR2 / RFU, WDSUB1 / Fold change vs veh, WDSUB1 / Fold change vs veh, HSP90B1 /// MIR3652 / RFU, ADSS / Fold change vs veh, ADSS / RFU, GK / Fold change vs veh, GK / RFU, ZNF148 / Fold change vs veh, ZNF148 / RFU, TAF9 / Fold change vs veh, TAF9 / RFU, SLC1A5 / Fold change vs veh, SLC1A5 / RFU, SLMO2 / Fold change vs veh, SLMO2 / RFU, ABCC4 / Fold change vs veh, ABCC4 / RFU, LOC101060439 /// RAP1B / Fold change vs veh, LOC101060439 /// RAP1B / RFU, RFX7 / Fold change vs veh, RFX7 / RFU, GTPBP10 / Fold change vs veh, GTPBP10 / RFU, CNEP1R1 / Fold change vs veh, CNEP1R1 / RFU, BIVM-ERCC5 /// ERCC5 / Fold change vs veh, BIVM-ERCC5 /// ERCC5 / RFU, ILF3 / Fold change vs veh, ILF3 / RFU 11762660_at / Fold change /veh 11762660_at / RFU VCAN (11757783_s_at) / Fold change /veh VCAN (11757783_s_at) / RFU DDX43 (11728927_at) / Fold change /veh DDX43 (11728927_at) / RFU KRT8 (11758188_x_at) / Fold change /veh KRT8 (11758188_x_at) / RFU NKD1 (11759106_at) / Fold change /veh NKD1 (11759106_at) / RFU SRD5A1 (11742802_a_at) / Fold change /veh SRD5A1 (11742802_a_at) / RFU TPSAB1 /// TPSB2 (11721975_s_at) / Fold change /veh TPSAB1 /// TPSB2 (11721975_s_at) / RFU GSTM3 (11746129_a_at) / Fold change /veh GSTM3 (11746129_a_at) / RFU IL23R (11737362_x_at) / Fold change /veh IL23R (11737362_x_at) / RFU TMEM51 (11727254_a_at) / Fold change /veh TMEM51 (11727254_a_at) / RFU PIWIL2 (11732686_x_at) / Fold change /veh PIWIL2 (11732686_x_at) / RFU ORM1 (11744905_x_at) / Fold change /veh ORM1 (11744905_x_at) / RFU CCDC152 (11743942_at) / Fold change /veh CCDC152 (11743942_at) / RFU ECM1 (11717891_a_at) / Fold change /veh ECM1 (11717891_a_at) / RFU IL23R (11748794_a_at) / Fold change /veh IL23R (11748794_a_at) / RFU TNFAIP8L3 (11732012_x_at) / Fold change /veh TNFAIP8L3 (11732012_x_at) / RFU MBOAT4 (11741988_at) / Fold change /veh MBOAT4 (11741988_at) / RFU 11764193_at / Fold change /veh 11764193_at / RFU TMEM53 (11763286_at) / Fold change /veh TMEM53 (11763286_at) / RFU MAGEB2 (11727129_at) / Fold change /veh MAGEB2 (11727129_at) / RFU TMEM200A (11744735_a_at) / Fold change /veh TMEM200A (11744735_a_at) / RFU CCDC152 (11751479_a_at) / Fold change /veh CCDC152 (11751479_a_at) / RFU FAM211A (11726209_a_at) / Fold change /veh FAM211A (11726209_a_at) / RFU RGS16 (11746705_a_at) / Fold change /veh RGS16 (11746705_a_at) / RFU VCAN (11755009_s_at) / Fold change /veh VCAN (11755009_s_at) / RFU RHOB (11743442_s_at) / Fold change /veh RHOB (11743442_s_at) / RFU RGS16 (11720943_a_at) / Fold change /veh RGS16 (11720943_a_at) / RFU RGS16 (11720944_at) / Fold change /veh RGS16 (11720944_at) / RFU, VPS4B / Fold change vs veh, VPS4B / RFU, CREB1 / Fold change vs veh, CREB1 / RFU, DNAJC13 / Fold change vs veh, DNAJC13 / RFU, GNAQ / Fold change vs veh, GNAQ / RFU, CDK5R1 / Fold change vs veh, CDK5R1 / RFU, ZRANB3 / Fold change vs veh, ZRANB3 / RFU, CUL4A / Fold change vs veh, CUL4A / RFU, CCNY / Fold change vs veh, CCNY / RFU, UFL1 / Fold change vs veh, UFL1 / RFU, COG3 / Fold change vs veh, COG3 / RFU, DIAPH2 / Fold change vs veh, DIAPH2 / RFU, SKA2 / Fold change vs veh, SKA2 / RFU, AFF3 / Fold change vs veh, AFF3 / RFU, LMF1 / Fold change vs veh, LMF1 / RFU, IPO11 / Fold change vs veh, IPO11 / RFU, DFFB / Fold change vs veh, DFFB / RFU, FOXP1 / Fold change vs veh, FOXP1 / RFU, CARD8 / Fold change vs veh, CARD8 / RFU, STRN3 / Fold change vs veh, STRN3 / RFU, ADK / Fold change vs veh, ADK / RFU, RASSF2 / Fold change vs veh, RASSF2 / RFU, WIPF1 / Fold change vs veh, WIPF1 / RFU, LARP1B / Fold change vs veh, LARP1B / RFU, RASA1 / Fold change vs veh, RASA1 / RFU, RB1 / Fold change vs veh, RB1 / RFU, PPFIA1 / Fold change vs veh, PPFIA1 / RFU, MAT2A / Fold change vs veh, MAT2A / RFU, CCT5 / Fold change vs veh, CCT5 / RFU, WDR92 / Fold change vs veh, WDR92 / RFU, CUX1 / Fold change vs veh, CUX1 / RFU, TTC7A / Fold change vs veh, TTC7A / RFU, TMEM135 / Fold change vs veh, TMEM135 / RFU, DEPTOR / Fold change vs veh, DEPTOR / RFU, CPM / Fold change vs veh, CPM / RFU, DNAJB6 / Fold change vs veh, DNAJB6 / RFU, CACNA2D3 / Fold change vs veh, CACNA2D3 / RFU, DTX4 / Fold change vs veh, DTX4 / RFU, TFCP2 / Fold change vs veh, TFCP2 / RFU, GMCL1 /// GMCL1P1 / Fold change vs veh, GMCL1 /// GMCL1P1 / RFU, AEBP2 / Fold change vs veh, AEBP2 / RFU, SNHG1 /// SNORD22 /// SNORD25 /// SNORD26 /// SNORD27 /// SNORD28 /// SNORD29 /// SNORD31 / Fold change vs veh, SNHG1 /// SNORD22 /// SNORD25 /// SNORD26 /// SNORD27 /// SNORD28 /// SNORD29 /// SNORD31 / Fold change (Aza/veh), C12orf56 (ProbeSet 11735607_a_at) / Fold change (ACY-1035/veh), C12orf56 (ProbeSet 11735607_a_at) / Fold change (Aza/veh), FGFR1OP (ProbeSet 11751329_s_at) / Fold change (ACY-1035/veh), FGFR1OP (ProbeSet 11751329_s_at) / Fold change (Aza/veh), VPS36 (ProbeSet 11739960_a_at) / Fold change (ACY-1035/veh), VPS36 (ProbeSet 11739960_a_at) / RFU SYPL1 (11715823_x_at) / Fold change /veh SYPL1 (11715823_x_at) / RFU IGFBP7 (11715501_s_at) / Fold change /veh IGFBP7 (11715501_s_at) / RFU REEP3 (11722064_at) / Fold change /veh REEP3 (11722064_at) / RFU IGLL1 (11728026_x_at) / Fold change /veh IGLL1 (11728026_x_at): dose or concentration left out as unconfirmed
Conditions: MV-4-11 cells, 48 hours

## Nc1ncn([C@@H]2O[C@H](CO)[C@@H](O)[C@H]2O)c(=O)n1 [azacitidine]
  RFU 11764193_at: 40.50 RFU
